Assay results: ChEMBL document CHEMBL2029240 (ACS Med Chem Lett, 2011)

Legend:
[1] = target: C-C chemokine receptor type 2 (Homo sapiens, UniProt P41597)
Description: Displacement of [125I]MCP1 from human CCR2 in PBMC after 30 mins by gamma counting

hERG (KCNH2) = hERG (KCNH2) (Homo sapiens, UniProt Q12809); experiment: Inhibition of human ERG at 10 uM by patch clamp assay
[2] = target: Voltage-gated inwardly rectifying potassium channel KCNH2 (Homo sapiens, UniProt Q12809); experiment: Displacement of [3H]dofetilide from human ERG
Voltage-gated inwardly rectifying potassium channel KCNH2, sequence (Q12809 whole entry): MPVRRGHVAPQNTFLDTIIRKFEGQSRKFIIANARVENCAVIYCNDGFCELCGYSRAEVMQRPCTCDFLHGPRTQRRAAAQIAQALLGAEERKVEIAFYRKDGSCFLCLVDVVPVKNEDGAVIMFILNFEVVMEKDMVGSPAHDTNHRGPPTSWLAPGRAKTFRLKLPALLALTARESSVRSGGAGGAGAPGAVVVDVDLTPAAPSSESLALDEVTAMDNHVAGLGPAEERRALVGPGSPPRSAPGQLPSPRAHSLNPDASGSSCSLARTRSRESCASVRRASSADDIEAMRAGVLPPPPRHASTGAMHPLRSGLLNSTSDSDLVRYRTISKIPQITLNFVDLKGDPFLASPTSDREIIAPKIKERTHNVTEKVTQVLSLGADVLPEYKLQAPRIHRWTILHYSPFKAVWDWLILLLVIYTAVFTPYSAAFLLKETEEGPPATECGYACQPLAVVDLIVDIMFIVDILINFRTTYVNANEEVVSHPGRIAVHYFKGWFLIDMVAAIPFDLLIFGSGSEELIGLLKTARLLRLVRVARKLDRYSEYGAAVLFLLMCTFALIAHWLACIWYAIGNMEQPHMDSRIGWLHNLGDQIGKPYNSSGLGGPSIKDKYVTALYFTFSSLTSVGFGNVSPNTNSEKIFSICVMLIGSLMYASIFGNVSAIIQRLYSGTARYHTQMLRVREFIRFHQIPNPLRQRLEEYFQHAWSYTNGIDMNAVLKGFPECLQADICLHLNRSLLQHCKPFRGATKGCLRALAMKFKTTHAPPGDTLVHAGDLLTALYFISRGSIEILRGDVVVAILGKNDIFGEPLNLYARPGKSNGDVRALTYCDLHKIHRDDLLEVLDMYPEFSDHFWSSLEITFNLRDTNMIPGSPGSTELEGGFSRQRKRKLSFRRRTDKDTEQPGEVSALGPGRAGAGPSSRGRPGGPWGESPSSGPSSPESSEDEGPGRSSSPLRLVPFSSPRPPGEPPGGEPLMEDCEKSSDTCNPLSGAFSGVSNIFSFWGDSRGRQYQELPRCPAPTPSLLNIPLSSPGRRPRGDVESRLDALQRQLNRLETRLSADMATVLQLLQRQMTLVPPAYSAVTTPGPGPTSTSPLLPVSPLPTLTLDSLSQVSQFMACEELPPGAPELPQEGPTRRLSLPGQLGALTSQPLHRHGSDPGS

C-C chemokine receptor type 2, sequence (P41597 whole entry): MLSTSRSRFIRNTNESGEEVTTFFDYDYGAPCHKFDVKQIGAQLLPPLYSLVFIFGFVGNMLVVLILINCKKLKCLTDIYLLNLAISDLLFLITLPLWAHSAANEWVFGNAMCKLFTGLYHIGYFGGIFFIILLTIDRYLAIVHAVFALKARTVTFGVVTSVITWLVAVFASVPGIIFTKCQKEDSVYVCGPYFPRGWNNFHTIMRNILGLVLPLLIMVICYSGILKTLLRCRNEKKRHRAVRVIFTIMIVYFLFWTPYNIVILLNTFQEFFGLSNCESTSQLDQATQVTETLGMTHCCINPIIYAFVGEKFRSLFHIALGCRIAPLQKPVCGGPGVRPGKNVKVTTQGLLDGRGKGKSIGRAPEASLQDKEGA
hERG (KCNH2), sequence (Q12809 whole entry): as the sequence (Q12809 whole entry) above

| IC50 [1] [nM] | Structure (SMILES) | inhibition at 10 µM (hERG (KCNH2)) [%] | IC50 [2] [nM] |
| --- | --- | --- | --- |
| 860 | O=C(NCC(=O)N1CC[C@@H](N[C@H]2CC[C@@H](c3ccccc3)CC2)C1)c1cccc(C(F)(F)F)c1 |  |  |
| 35 | O=C(NCC(=O)N1CC[C@H](N[C@H]2CC[C@@H](c3ccccc3)CC2)C1)c1cccc(C(F)(F)F)c1 |  |  |
| 95 | COc1ccc([C@]2(O)CC[C@H](N[C@H]3CCN(C(=O)CNC(=O)c4cccc(C(F)(F)F)c4)C3)CC2)cn1 |  |  |

Further lines, the compound ahead of its results:

| Structure (SMILES) | IC50 [1] [nM] | inhibition at 10 µM (hERG (KCNH2)) [%] | IC50 [2] [nM] |
| --- | --- | --- | --- |
| CN([C@H]1CCN(C(=O)CNC(=O)c2cccc(C(F)(F)F)c2)C1)[C@H]1CC[C@@H](c2ccccc2)CC1 | 84 |  |  |
| O=C(NCC(=O)N1CC[C@H](N[C@H]2CC[C@@](O)(c3ccccc3)CC2)C1)c1cccc(C(F)(F)F)c1 | 65 |  |  |
| O=C(NCC(=O)N1CC[C@H](N[C@H]2CC[C@@](O)(c3ccccn3)CC2)C1)c1cccc(C(F)(F)F)c1 |  | 34 | > 30000 |
| O=C(NCC(=O)N1CC[C@H](N[C@H]2CC[C@@](O)(c3nccs3)CC2)C1)c1cccc(C(F)(F)F)c1 | 18 |  |  |
| Cc1ccc([C@]2(O)CC[C@H](N[C@H]3CCN(C(=O)CNC(=O)c4cccc(C(F)(F)F)c4)C3)CC2)nc1 |  | 71 | 24000 |
| O=C(NCC(=O)N1CC[C@H](N[C@H]2CC[C@@](O)(c3ccc(-c4cccnc4)cn3)CC2)C1)c1cccc(C(F)(F)F)c1 |  |  | 30000 |
